Converted amounts (≈) assume the structure as drawn.
Columns and labels:
[1] = tested on: L1210; assay: Cytotoxicity against mouse L1210 cells; type: functional, cell-based
[2] = tested on: L1210; assay: Antitumor activity against mouse L1210 cells implanted in mouse assessed as increase in survival; type: functional
[3] = tested on: Candida albicans; assay: Antifungal activity against Candida albicans at 1.25 mg/6.4 mm disk; type: functional

Compound | IC50 [1] [µg/mL] | Activity [2] [%] | inhibition zone (IZ) [3] [mm]
COC(=O)c1cn([C@@H]2O[C@H](CO)[C@@H](O)[C@H]2O)c2ncnc(N)c12 | 0.027 (≈ 0.0833 µM) | 39 | 
N#Cc1cn([C@@H]2O[C@H](CO)[C@@H](O)[C@H]2O)c2ncnc(N)c12 [TOYOCAMYCIN] | 0.0026 (≈ 0.00893 µM) |  | 13

— ChEMBL document CHEMBL1147324, “The isolation and structure of modified bioactive nucleosides from Jaspis johnstoni” (J Nat Prod, 1989)
